# Measurements: patent EP4268810A1 (priority 2022, dated 2023)
# Like-named read-outs stand apart in the source and are kept apart here.
# Legend:
# [1] = system: SARS-CoV-2 clinical omicron isolate; test: microbe, parasite or virus in culture; conditions: Severe acute respiratory syndrome coronavirus 2, Calu-3
# [2] = system: SARS-CoV-2 clinical omicron isolate
Compound,IC50 [1] [nM],"Therapeutic range: CC50/IC50, CTG ([2]; SARS-CoV-2 omicron in Calu-3 cells, CC50 by CTG)","Therapeutic range: CC50/IC50, IncuCyte ([2]; SARS-CoV-2 omicron in Calu-3 cells, CC50 by IncuCyte)","Therapeutic range: CC50/IC50, MTT ([2]; SARS-CoV-2 omicron in Calu-3 cells, CC50 by MTT)","Therapeutic range: CC50/IC50, CTG ([2]; human, calu-3 cells)","Therapeutic range: CC50/IC50, IncuCyte ([2]; human, calu-3 cells)","Therapeutic range: CC50/IC50, MTT ([2]; human, calu-3 cells)"
COc1[nH]c(=O)c(C(=O)C(C)CC(C)C(Cl)CCl)c(O)c1OC (centres unmarked) [Atpenin A5],680,CTG: 1.3,IncuCyte: > 117.6,MTT: 1.8,–,–,–
"[H]/N=C(/N)N/C(=N/[H])NCCc1ccccc1 [Phenformin, phenformin]",1350,–,–,–,CTG: 1674,IncuCyte: 1111,MTT: 1123
